Like-named read-outs stand apart in the source and are kept apart here.
Legend:
[1] = target: T1, E. coli ADP-glucose pyrophosphorylase (ADP-Glc PPase) (Escherichia coli, UniProt P0A6V1, R52K); experiment: ADP-glucose synthesis, colorimetric phosphate detection after pyrophosphatase; assay type: biochemical; settings: read-out: PLP / A0.5 /
T1 construct: gene glgC
T1 sequence (P0A6V1 1-431 R52K): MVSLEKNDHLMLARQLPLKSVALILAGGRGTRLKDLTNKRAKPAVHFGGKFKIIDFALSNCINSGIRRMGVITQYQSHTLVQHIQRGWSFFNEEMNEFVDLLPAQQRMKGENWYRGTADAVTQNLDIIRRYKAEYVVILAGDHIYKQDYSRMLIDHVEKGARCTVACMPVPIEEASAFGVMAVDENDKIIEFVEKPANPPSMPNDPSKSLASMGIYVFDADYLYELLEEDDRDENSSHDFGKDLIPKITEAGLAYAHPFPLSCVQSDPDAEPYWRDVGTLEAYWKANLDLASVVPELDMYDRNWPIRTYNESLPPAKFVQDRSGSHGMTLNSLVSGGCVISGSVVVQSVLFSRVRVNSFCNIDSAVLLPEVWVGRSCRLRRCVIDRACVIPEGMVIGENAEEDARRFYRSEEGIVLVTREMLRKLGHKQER
Description: (§1) ADP-glucose synthesis, colorimetric phosphate detection after pyrophosphatase on E. coli ADP-glucose pyrophosphorylase (ADP-Glc PPase)

[2] = target: T2, E. coli ADP-glucose pyrophosphorylase (ADP-Glc PPase) (Escherichia coli, UniProt P0A6V1, R40A); experiment: as above; assay type: biochemical; settings: read-out: PLP / A0.5 /
T2 construct: gene glgC
T2 sequence (P0A6V1 1-431 R40A): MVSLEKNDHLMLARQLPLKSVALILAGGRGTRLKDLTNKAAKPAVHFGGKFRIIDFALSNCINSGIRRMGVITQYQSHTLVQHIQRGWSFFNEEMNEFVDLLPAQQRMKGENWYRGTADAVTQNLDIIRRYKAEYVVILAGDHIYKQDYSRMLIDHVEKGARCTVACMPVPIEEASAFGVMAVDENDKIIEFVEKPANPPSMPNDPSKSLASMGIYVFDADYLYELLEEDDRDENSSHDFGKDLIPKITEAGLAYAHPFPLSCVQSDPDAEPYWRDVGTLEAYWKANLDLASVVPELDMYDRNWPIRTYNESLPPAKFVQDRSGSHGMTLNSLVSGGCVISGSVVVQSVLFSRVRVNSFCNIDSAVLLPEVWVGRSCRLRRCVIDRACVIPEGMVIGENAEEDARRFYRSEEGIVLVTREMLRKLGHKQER
Description: as §1

[3] = target: T3, E. coli ADP-glucose pyrophosphorylase (ADP-Glc PPase) (Escherichia coli, UniProt P0A6V1, R423A); experiment: as above; assay type: biochemical
T3 construct: gene glgC
T3 sequence (P0A6V1 1-431 R423A): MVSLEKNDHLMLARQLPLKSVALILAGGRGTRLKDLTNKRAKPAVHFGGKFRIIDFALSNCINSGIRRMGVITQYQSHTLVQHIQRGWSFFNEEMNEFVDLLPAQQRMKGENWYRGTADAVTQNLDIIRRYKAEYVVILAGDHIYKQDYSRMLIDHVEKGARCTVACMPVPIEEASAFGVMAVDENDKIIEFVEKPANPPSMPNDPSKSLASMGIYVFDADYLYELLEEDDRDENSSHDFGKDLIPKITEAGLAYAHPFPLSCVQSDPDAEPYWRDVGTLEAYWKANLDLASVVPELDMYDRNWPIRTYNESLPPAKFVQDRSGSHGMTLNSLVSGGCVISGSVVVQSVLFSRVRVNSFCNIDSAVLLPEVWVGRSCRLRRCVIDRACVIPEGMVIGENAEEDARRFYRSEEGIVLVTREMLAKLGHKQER
Description: as §1

[4] = target: T4, E. coli ADP-glucose pyrophosphorylase (ADP-Glc PPase) (Escherichia coli, UniProt P0A6V1, R419A); experiment: as above; assay type: biochemical
T4 construct: gene glgC
T4 sequence (P0A6V1 1-431 R419A): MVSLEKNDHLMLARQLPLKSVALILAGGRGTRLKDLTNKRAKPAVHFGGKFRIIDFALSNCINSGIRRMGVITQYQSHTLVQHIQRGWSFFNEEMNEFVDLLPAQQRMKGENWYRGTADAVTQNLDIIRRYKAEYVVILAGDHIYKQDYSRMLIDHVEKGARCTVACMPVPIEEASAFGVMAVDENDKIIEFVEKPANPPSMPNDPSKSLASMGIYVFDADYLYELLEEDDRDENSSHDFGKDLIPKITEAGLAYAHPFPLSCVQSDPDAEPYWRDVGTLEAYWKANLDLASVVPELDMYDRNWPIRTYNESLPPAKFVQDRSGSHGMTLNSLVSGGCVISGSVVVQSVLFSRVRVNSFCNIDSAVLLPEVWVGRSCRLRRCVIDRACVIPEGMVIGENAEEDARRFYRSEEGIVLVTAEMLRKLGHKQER
Description: as §1

[5] = target: T5, E. coli ADP-glucose pyrophosphorylase (ADP-Glc PPase) (Escherichia coli, UniProt P0A6V1); experiment: as above; assay type: biochemical
T5 construct: gene glgC
T5 sequence (P0A6V1 1-431): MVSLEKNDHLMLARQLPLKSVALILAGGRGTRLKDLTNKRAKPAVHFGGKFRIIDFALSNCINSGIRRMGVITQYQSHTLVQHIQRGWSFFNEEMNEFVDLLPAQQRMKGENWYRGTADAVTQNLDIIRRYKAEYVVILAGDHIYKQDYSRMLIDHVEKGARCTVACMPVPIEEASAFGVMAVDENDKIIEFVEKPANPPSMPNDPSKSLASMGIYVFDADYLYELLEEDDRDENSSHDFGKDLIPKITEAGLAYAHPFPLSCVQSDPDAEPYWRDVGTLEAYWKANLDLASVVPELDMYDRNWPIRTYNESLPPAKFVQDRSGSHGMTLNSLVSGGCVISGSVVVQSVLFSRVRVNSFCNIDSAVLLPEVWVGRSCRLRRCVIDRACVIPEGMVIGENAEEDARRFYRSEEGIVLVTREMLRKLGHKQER
Description: as §1

[6] = target: T6, E. coli ADP-glucose pyrophosphorylase (ADP-Glc PPase) (Escherichia coli, UniProt P0A6V1, R130A); experiment: as above; assay type: biochemical
T6 construct: gene glgC
T6 sequence (P0A6V1 1-431 R130A): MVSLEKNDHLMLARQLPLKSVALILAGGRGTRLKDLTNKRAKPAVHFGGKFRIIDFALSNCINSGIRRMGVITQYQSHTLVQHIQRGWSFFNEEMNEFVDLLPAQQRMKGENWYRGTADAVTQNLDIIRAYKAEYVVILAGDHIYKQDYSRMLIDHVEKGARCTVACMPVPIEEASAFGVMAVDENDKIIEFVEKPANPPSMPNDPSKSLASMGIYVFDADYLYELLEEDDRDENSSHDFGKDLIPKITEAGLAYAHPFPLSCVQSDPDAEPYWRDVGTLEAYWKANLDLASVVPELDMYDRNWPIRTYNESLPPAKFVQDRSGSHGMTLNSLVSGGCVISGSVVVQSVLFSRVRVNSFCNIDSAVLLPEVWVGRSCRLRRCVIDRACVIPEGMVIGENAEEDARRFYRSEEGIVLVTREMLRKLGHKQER
Description: as §1

[7] = target: T7, E. coli ADP-glucose pyrophosphorylase (ADP-Glc PPase) (Escherichia coli, UniProt P0A6V1, R386A); experiment: as above; assay type: biochemical
T7 construct: gene glgC
T7 sequence (P0A6V1 1-431 R386A): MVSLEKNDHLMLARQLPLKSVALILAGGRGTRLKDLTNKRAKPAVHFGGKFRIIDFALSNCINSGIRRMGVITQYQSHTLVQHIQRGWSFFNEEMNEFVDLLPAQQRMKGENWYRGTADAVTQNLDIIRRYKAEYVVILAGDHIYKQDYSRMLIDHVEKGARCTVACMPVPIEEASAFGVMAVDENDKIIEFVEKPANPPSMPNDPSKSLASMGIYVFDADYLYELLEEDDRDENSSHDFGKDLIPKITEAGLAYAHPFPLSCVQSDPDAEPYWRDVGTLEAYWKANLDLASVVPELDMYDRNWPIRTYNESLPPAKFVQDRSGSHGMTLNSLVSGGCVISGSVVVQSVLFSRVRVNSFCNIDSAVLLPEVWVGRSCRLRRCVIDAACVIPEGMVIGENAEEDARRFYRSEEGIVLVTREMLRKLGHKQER
Description: as §1

[8] = target: T8, E. coli ADP-glucose pyrophosphorylase (ADP-Glc PPase) (Escherichia coli, UniProt P0A6V1, R353A); experiment: as above; assay type: biochemical
T8 construct: gene glgC
T8 sequence (P0A6V1 1-431 R353A): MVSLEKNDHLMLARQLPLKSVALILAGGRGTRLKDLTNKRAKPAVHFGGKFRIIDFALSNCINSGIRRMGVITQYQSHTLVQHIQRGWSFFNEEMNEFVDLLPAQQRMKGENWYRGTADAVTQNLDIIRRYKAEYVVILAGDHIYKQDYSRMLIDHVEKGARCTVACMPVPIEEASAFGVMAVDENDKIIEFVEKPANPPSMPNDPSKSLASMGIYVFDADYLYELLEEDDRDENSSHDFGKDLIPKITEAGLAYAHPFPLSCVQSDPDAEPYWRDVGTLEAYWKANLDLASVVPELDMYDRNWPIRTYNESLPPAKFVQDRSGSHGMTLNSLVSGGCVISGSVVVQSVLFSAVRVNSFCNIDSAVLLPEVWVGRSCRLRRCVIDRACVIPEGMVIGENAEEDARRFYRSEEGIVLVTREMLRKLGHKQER
Description: as §1

[9] = target: T5, E. coli ADP-glucose pyrophosphorylase (ADP-Glc PPase); experiment: thermal shift assay, SYPRO Orange; assay type: binding; settings: read-out: dTm at 1 mM
[10] = substrate: Nc1ncnc2c1ncn2[C@@H]1O[C@H](COP(=O)(O)OP(=O)(O)OP(=O)(O)O)[C@@H](O)[C@H]1O; experiment: ADP-glucose synthesis, colorimetric phosphate detection after pyrophosphatase; assay type: biochemical, Escherichia coli; settings: no activator (control), 1 mM Glc1P, 10 mM MgCl2, 50 mM HEPES pH 8.0
Method: One was measured in absence (control)

[11] = activator, allosteric, 1.0 mM Glc1P, 1.5 mM ATP, 10 mM MgCl2, pH 8.0, read-out: FBP / A0.5 /

Cc1ncc(COP(=O)(O)O)c(C=O)c1O [PLP]
EC50 [1]: 0.22 ± 0.05 µM
EC50 [2]: 0.48 ± 0.22 µM
EC50 ([3]; read-out: PLP / A0.5 /): 0.21 ± 0.01 µM
EC50 ([4]; read-out: PLP / A0.5 /): 0.019 ± 0.005 µM
EC50 ([5]; read-out: PLP / A0.5 /): 0.075 ± 0.004 µM
EC50 ([6]; read-out: PLP / A0.5 /): 1.29 ± 0.23 µM
EC50 ([7]; read-out: PLP / A0.5 /): 4.2 ± 0.6 µM
EC50 ([8]; read-out: PLP / A0.5 /): 0.16 ± 0.01 µM

O=P(O)(O)OC[C@H]1OC(O)(COP(=O)(O)O)[C@@H](O)[C@@H]1O (stereo partly shown) [FBP]
ΔTm at 1000 µM [9]: 13.2 °C
EC50 [3, 11]: 320 ± 50 µM
EC50 [4, 11]: 36 ± 11 µM
EC50 [5, 11]: 27 ± 9 µM
EC50 [6, 11]: 67 ± 10 µM
EC50 [7, 11]: 1000 ± 130 µM
EC50 [8, 11]: 40 ± 10 µM

B1: E. coli ADP-glucose pyrophosphorylase (ADP-Glc PPase) (Escherichia coli K-12) (protein)
chain: MVSLEKNDHLMLARQLPLKSVALILAGGRGTRLKDLTNKRAKPAVHFGGKFRIIDFALSNCINSGIRRMGVITQYQSHTLVQHIQRGWSFFNEEMNEFVDLLPAQQRMKGENWYRGTADAVTQNLDIIRRYKAEYVVILAGDHIYKQDYSRMLIDHVEKGARCTVACMPVPIEEASAFGVMAVDENDKIIEFVEKPANPPSMPNDPSKSLASMGIYVFDADYLYELLEEDDRDENSSHDFGKDLIPKITEAGLAYAHPFPLSCVQSDPDAEPYWRDVGTLEAYWKANLDLASVVPELDMYDRNWPIRTYNESLPPAKFVQDRSGSHGMTLNSLVSGGCVISGSVVVQSVLFSRVRVNSFCNIDSAVLLPEVWVGRSCRLRRCVIDRACVIPEGMVIGENAEEDARRFYRSEEGIVLVTREMLRKLGHKQER
K0.5 [10]: 1.75 ± 0.09 mM
